# Biological target: T1, recombinant mouse NEU3 (Mus musculus, UniProt Q9JMH7)
# T1 construct: c-Myc; host or cells: HEK 293 Freestyle cells
# T1 sequence (Q9JMH7 1-418): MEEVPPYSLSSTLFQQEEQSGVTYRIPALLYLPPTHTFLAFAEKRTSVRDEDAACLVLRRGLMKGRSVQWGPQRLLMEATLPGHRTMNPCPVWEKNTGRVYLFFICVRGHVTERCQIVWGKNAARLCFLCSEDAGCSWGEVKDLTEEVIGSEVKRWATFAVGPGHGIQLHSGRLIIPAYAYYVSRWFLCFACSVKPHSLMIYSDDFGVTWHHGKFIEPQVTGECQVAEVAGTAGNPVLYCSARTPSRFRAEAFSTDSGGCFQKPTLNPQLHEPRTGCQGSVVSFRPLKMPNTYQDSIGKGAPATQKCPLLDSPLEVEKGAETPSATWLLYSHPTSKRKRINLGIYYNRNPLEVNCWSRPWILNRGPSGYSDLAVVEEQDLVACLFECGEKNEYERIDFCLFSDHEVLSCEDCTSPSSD
# Assay: Recombinant mouse NEU3-catalyzed TGF-β1 activation (TGF-β1 ELISA)
# Type: biochemical
# Settings: recombinant mouse NEU3, FIGS. 7A-B
# Procedure: To determine if selected NEU3 inhibitors could be used in mice to inhibit mouse NEU3, we made recombinant mouse NEU3 in HEK 293 Freestyle human embryonic kidney cells. HEK 293 Freestyle cells (Life Technologies, Grand Island, NY) were cultured in FreeStyle 293 media (12338-018, Life Technologies, Grand Island, NY). 1×10^5 cells were mixed with 2 μg of 100 μg/ml of murine Neu3 expression clone (MR223297, Origene), in 100 μl PBS (GE Lifesciences), and were transfected by electroporation using a 4D-Nucelofactor System (Lonza) following the manufacturer's protocol. The transfected cells were kept at room temperature for 15 minutes for recovery, after which the cells were cultured in 25 ml Freestyle 293 media with 250 μg/ml of G418 antibiotic (345812, Calbiochem EMD Chemicals Inc. San Diego, CA) to select for transfected cells, in a 200 ml cell culture flask (431464U, Corning) at 37° C. humidified with 5% CO2. After 10 days, the cells were isolated, lysed, and c-Myc tagged recombinant mouse NEU3 protein was purified using a Myc-Trap A kit (ytak-20, Chromotek, Hauppauge, NY) following the manufacturer's protocol. The eluted protein was stored in 50 μl of 10% glycerol, 100 mM glycine, 25 mM Tris-HCl pH 7.3.
# To determine if NEU3 inhibitors would be effective in mice, NEU3 inhibitors were tested against recombinant mouse NEU3. […]
row,inhibition of NEU3's activation of TGF-β1,Compound
1,inhibited,"CC(=O)c1ccccn1 [Compound 5, 2-acetylpyridine]"
2,inhibited,"COC(=O)c1ccccn1 [Compound 6, methyl picolinate]"

# From patent US12616674B2, “Anti-fibrotic NEU3 inhibitor compounds and methods of use” (The Texas A&M University System, priority 2019, dated 2026)
